Values after ≈ are worked out from the molar mass of the structure shown. Like-named read-outs stand apart in the source and are kept apart here.
Experiments:
Streptococcus pyogenes = assay: Susceptibility testing (MIC) Assay 1, broth microdilution; assay type: cell-based; details: Streptococcus pyrgenes, in vivo strain, read-out: Spy MIC
Staphylococcus aureus = assay: as above; assay type: cell-based
Streptococcus pneumoniae = assay: as above; assay type: cell-based
Pseudomonas aeruginosa = assay: Susceptibility testing (MIC) Assay 2, broth microdilution; assay type: cell-based; details: for MIC: PAO1, read-out: Pae MIC
Klebsiella pneumoniae = assay: as above; assay type: cell-based; details: clinical isolate, mucoid, read-out: Kpn MIC
Escherichia coli = assay: as above; assay type: cell-based; details: K12, read-out: Eco MIC
Haemophilus influenzae = assay: as above; assay type: cell-based; details: ATCC 51907, in vivo strain, read-out: Hin MIC
[1] = target: Escherichia coli DNA gyrase A/B tetramer (Escherichia coli (strain K12), UniProt P0AES4+P0AES6); assay: DNA gyrase supercoiling activity fluorescence polarisation assay; assay type: biochemical; details: 0.3 mM ATP
Procedure, shortened: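 IC50 derived by nonlinear regression from BODIPY-FL fluorescence anisotropy, read 60 min after quenching with labelled triplex-forming probe (pH 3.5). Reaction: 5 nM gyrase tetramer, 130 micrograms/mL relaxed plasmid, 0.3 mM ATP, 4 mM MgCl2, pH 7.5, typically 30 min at ambient temperature, 5-10 compound concentrations.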

[2] = Staphylococcus aureus, in vivo strain, MRQR, read-out: Sau(e) MIC
[3] = Staphylococcus aureus, serum, read-out: Sau(f) MIC
[4] = in vivo strain (footnote b), read-out: Spn(b) MIC
[5] = in vivo strain (footnote c), read-out: Spn(c) MIC
[6] = Staphylococcus aureus, Staphylococcus aureus in vivo strain, MSQS, read-out: Sau(d) MIC
[7] = ATCC51907, Haemophilus influenzae
[8] = Eco Gyr FP Mean IC50, E. coli DNA gyrase supercoiling

Compound	MIC (Streptococcus pyogenes)	MIC (Staphylococcus aureus; Staphylococcus aureus in vivo strain, MSQS, read-out: Sau(d) MIC)	MIC (Staphylococcus aureus; [2])	MIC (Staphylococcus aureus; [3])	MIC (Streptococcus pneumoniae; [4])	MIC (Streptococcus pneumoniae; [5])	Pae MIC (Pseudomonas aeruginosa; PAO1)	MIC (Klebsiella pneumoniae)	MIC (Escherichia coli)	MIC (Haemophilus influenzae)	IC50 ([1]; E. coli DNA gyrase supercoiling, read-out: Eco Gyr FP Mean IC50)	MIC (Streptococcus pyogenes; Streptococcus pyogenes)	MIC (Staphylococcus aureus; [6])	MIC (Pseudomonas aeruginosa)	MIC (Haemophilus influenzae; [7])	IC50 [1, 8]
C[C@@H]1CN2c3c(cc4c(N5C(=O)OC[C@@H]5CN=[N+]=[N-])noc4c3F)CC3(C(=O)NC(=O)NC3=O)[C@H]2[C@H](C)O1 [Example 48]	6.2 µM (≈ 3.28 µg/mL)	6.2 µM (≈ 3.28 µg/mL)	12 µM (≈ 6.34 µg/mL)	50 µM (≈ 26.4 µg/mL)	12 µM (≈ 6.34 µg/mL)	12 µM (≈ 6.34 µg/mL)	>200 µM	>200 µM	200 µM (≈ 106 µg/mL)	6.2 µM (≈ 3.28 µg/mL)	> 2100 nM	–	–	–	–	–
CC[C@H]1COC(=O)N1c1noc2c(F)c3c(cc12)CC1(C(=O)NC(=O)NC1=O)[C@H]1[C@H](C)O[C@H](C)CN31 [Example 6, (2R,4S,4aS)-8-[(4S)-4-Ethyl-2-oxo-1,3-oxazolidin-3-yl]-11-fluoro-2,4-dimethyl-1,2,4,4a-tetrahydro-2′H,6H-spiro[1,4-oxazino[4,3-a][1,2]oxazolo[4,5-g]quinoline-5,5′-pyrimidine]-2′,4′,6′(1′H,3′H)-trione]	–	–	6.2 µM (≈ 3.11 µg/mL)	12 µM (≈ 6.02 µg/mL)	6.2 µM (≈ 3.11 µg/mL)	3.1 µM (≈ 1.55 µg/mL)	–	121 µM (≈ 60.7 µg/mL)	100 µM (≈ 50.1 µg/mL)	–	–	3.1 µM (≈ 1.55 µg/mL)	1.6 µM (≈ 0.802 µg/mL)	> 200 µM	3.1 µM (≈ 1.55 µg/mL)	3300 nM
C[C@@H]1CN2c3c(cc4c(N5CC(C)(C)OC5=O)noc4c3F)CC3(C(=O)NC(=O)NC3=O)[C@H]2[C@H](C)O1 (racemic) [Example 12, (2R,4S,4aS)-8-(5,5-Dimethyl-2-oxo-1,3-oxazolidin-3-yl)-11-fluoro-2,4-dimethyl-1,2,4,4a-tetrahydro-2′H,6H-spiro[1,4-oxazino[4,3-a][1,2]oxazolo[4,5-g]quinoline-5,5′-pyrimidine]-2′,4′,6′(1′H,3′H)-trione]	–	–	3.1 µM (≈ 1.55 µg/mL)	25 µM (≈ 12.5 µg/mL)	6.2 µM (≈ 3.11 µg/mL)	6.2 µM (≈ 3.11 µg/mL)	–	> 200 µM	100 µM (≈ 50.1 µg/mL)	–	–	3.1 µM (≈ 1.55 µg/mL)	1.6 µM (≈ 0.802 µg/mL)	> 200 µM	3.1 µM (≈ 1.55 µg/mL)	3200 nM
CC[C@@H]1CN(c2noc3c(F)c4c(cc23)CC2(C(=O)NC(=O)NC2=O)[C@H]2[C@H](C)O[C@H](C)CN42)C(=O)O1 [Example 14, (2R,4S,4aS)-8-[(5R)-5-Ethyl-2-oxo-1,3-oxazolidin-3-yl]-11-fluoro-2,4-dimethyl-1,2,4,4a-tetrahydro-2′H,6H-spiro[1,4-oxazino[4,3-a][1,2]oxazolo[4,5-g]quinoline-5,5′-pyrimidine]-2′,4′,6′(1′H,3′H)-trione]	–	–	0.78 µM (≈ 0.391 µg/mL)	1.6 µM (≈ 0.802 µg/mL)	0.78 µM (≈ 0.391 µg/mL)	0.78 µM (≈ 0.391 µg/mL)	–	200 µM (≈ 100 µg/mL)	25 µM (≈ 12.5 µg/mL)	–	–	0.78 µM (≈ 0.391 µg/mL)	0.39 µM (≈ 0.196 µg/mL)	> 200 µM	0.78 µM (≈ 0.391 µg/mL)	570 nM
COCCOC[C@H]1COC(=O)N1c1noc2c(F)c3c(cc12)CC1(C(=O)NC(=O)NC1=O)[C@H]1[C@H](C)O[C@H](C)CN31 [Example 50, (2R,4S,4aS)-11-Fluoro-8-{(4S)-4-[(2-methoxyethoxy)methyl]-2-oxo-1,3-oxazolidin-3-yl}-2,4-dimethyl-1,2,4,4a-tetrahydro-2′H,6H-spiro[1,4-oxazino[4,3-a][1,2]oxazolo[4,5-g]quinoline-5,5′-pyrimidine]-2′,4′,6′(1′H,3′H)-trione]	–	–	3.1 µM (≈ 1.74 µg/mL)	1.6 µM (≈ 0.898 µg/mL)	1.6 µM (≈ 0.898 µg/mL)	1.6 µM (≈ 0.898 µg/mL)	–	> 200 µM	200 µM (≈ 112 µg/mL)	–	–	1.6 µM (≈ 0.898 µg/mL)	1.6 µM (≈ 0.898 µg/mL)	> 200 µM	3.1 µM (≈ 1.74 µg/mL)	200 nM
C[C@@H]1CN2c3c(cc4c(N5C(=O)OC[C@@H]5CCCF)noc4c3Cl)CC3(C(=O)NC(=O)NC3=O)[C@H]2[C@H](C)O1 [Example 34, (2R,4S,4aS)-11-Chloro-8-((S)-4-(3-fluoropropyl)-2-oxooxazolidin-3-yl)-2,4-dimethyl-2,4,4a,6-tetrahydro-1H,1′H-spiro[isoxazolo[4,5-g][1,4]oxazino[4,3-a]quinoline-5,5′-pyrimidine]-2′,4′,6′(3′H)-trione]	–	–	0.78 µM (≈ 0.429 µg/mL)	1.6 µM (≈ 0.88 µg/mL)	0.39 µM (≈ 0.214 µg/mL)	0.39 µM (≈ 0.214 µg/mL)	–	200 µM (≈ 110 µg/mL)	25 µM (≈ 13.7 µg/mL)	–	–	0.39 µM (≈ 0.214 µg/mL)	< 0.2 µM	> 200 µM	0.39 µM (≈ 0.214 µg/mL)	230 nM
C[C@@H]1CN2c3c(cc4c(N5C[C@H](C=NO)OC5=O)noc4c3F)CC3(C(=O)NC(=O)NC3=O)[C@H]2[C@H](C)O1 [Example 40, (2R,4S,4aS)-11-Fluoro-8-{(5R)-5-[(hydroxyimino)methyl]-2-oxo-1,3-oxazolidin-3-yl}-2,4-dimethyl-1,2,4,4a-tetrahydro-2′H,6H-spiro[1,4-oxazino[4,3a][1,2]oxazolo[4,5-g]quinoline-5,5′-pyrimidine]-2′,4′,6′(1′H,3′H)-trione]	–	–	3.1 µM (≈ 1.6 µg/mL)	1.6 µM (≈ 0.826 µg/mL)	0.39 µM (≈ 0.201 µg/mL)	0.78 µM (≈ 0.403 µg/mL)	–	> 200 µM	12 µM (≈ 6.2 µg/mL)	–	–	0.28 µM (≈ 0.145 µg/mL)	0.78 µM (≈ 0.403 µg/mL)	> 200 µM	0.39 µM (≈ 0.201 µg/mL)	380 nM
C[C@@H]1CN2c3c(cc4c(N5C(=O)O[C@H](C)[C@@H]5C)noc4c3F)CC3(C(=O)NC(=O)NC3=O)[C@H]2[C@H](C)O1 [Example 23]	–	–	0.78 µM (≈ 0.391 µg/mL)	0.78 µM (≈ 0.391 µg/mL)	0.78 µM (≈ 0.391 µg/mL)	0.78 µM (≈ 0.391 µg/mL)	–	100 µM (≈ 50.1 µg/mL)	6.2 µM (≈ 3.11 µg/mL)	–	–	0.39 µM (≈ 0.196 µg/mL)	0.39 µM (≈ 0.196 µg/mL)	> 200 µM	0.39 µM (≈ 0.196 µg/mL)	520 nM
C[C@@H]1CN2c3c(cc4c(N5C[C@@H](CO)OC5=O)noc4c3F)CC3(C(=O)NC(=O)NC3=O)[C@H]2[C@H](C)O1 [Example 26, (2R,4S,4aS)-11-Fluoro-8-((S)-5-(hydroxymethyl)-2-oxooxazolidin-3-yl)-2,4-dimethyl-2,4,4a,6-tetrahydro-1H,1′H-spiro[isoxazolo[4,5-g][1,4]oxazino[4,3-a]quinoline-5,5′-pyrimidine]-2′,4′,6′(3′H)-trione]	–	–	12 µM (≈ 6.04 µg/mL)	1.6 µM (≈ 0.806 µg/mL)	0.28 µM (≈ 0.141 µg/mL)	0.55 µM (≈ 0.277 µg/mL)	–	> 200 µM	25 µM (≈ 12.6 µg/mL)	–	–	< 0.2 µM	2.2 µM (≈ 1.11 µg/mL)	> 200 µM	< 0.2 µM	170 nM
C[C@@H]1CN2c3c(cc4c(N5C(=O)OC[C@H]5c5ccccn5)noc4c3F)CC3(C(=O)NC(=O)NC3=O)[C@H]2[C@H](C)O1 [Example 55, (2R,4S,4aS)-11-Fluoro-2,4-dimethyl-8-((R)-2-oxo-4-(pyridin-2-yl)oxazolidin-3-yl)-2,4,4a,6-tetrahydro-1H,1′H-spiro[isoxazolo[4,5-g][1,4]oxazino[4,3-a]quinoline-5,5′-pyrimidine]-2′,4′,6′(3′H)-trione]	–	–	1.6 µM (≈ 0.881 µg/mL)	1.6 µM (≈ 0.881 µg/mL)	0.78 µM (≈ 0.429 µg/mL)	0.78 µM (≈ 0.429 µg/mL)	–	> 200 µM	50 µM (≈ 27.5 µg/mL)	–	–	0.78 µM (≈ 0.429 µg/mL)	0.78 µM (≈ 0.429 µg/mL)	> 200 µM	0.39 µM (≈ 0.215 µg/mL)	150 nM
C[C@@H]1CN2c3c(cc4c(N5C(=O)OC[C@@H]5c5ccccc5)noc4c3F)CC3(C(=O)NC(=O)NC3=O)[C@H]2[C@H](C)O1 [Example 9, (2R,4S,4aS)-11-Fluoro-2,4-dimethyl-8-[(4S)-2-oxo-4-phenyl-1,3-oxazolidin-3-yl]-1,2,4,4a-tetrahydro-2′H,6H-spiro[1,4-oxazino[4,3-a][1,2]oxazolo[4,5-g]quinoline-5,5′-pyrimidine]-2′,4′,6′(1′H,3′H)-trione]	–	–	0.78 µM (≈ 0.429 µg/mL)	12 µM (≈ 6.59 µg/mL)	1.6 µM (≈ 0.879 µg/mL)	1.6 µM (≈ 0.879 µg/mL)	–	> 200 µM	50 µM (≈ 27.5 µg/mL)	–	–	0.78 µM (≈ 0.429 µg/mL)	0.78 µM (≈ 0.429 µg/mL)	> 200 µM	0.39 µM (≈ 0.214 µg/mL)	710 nM
C[C@@H]1CN2c3c(cc4c(N5C[C@@H](CF)OC5=O)noc4c3Cl)CC3(C(=O)NC(=O)NC3=O)[C@H]2[C@H](C)O1 [Example 32, (2R,4S,4aS)-11-Chloro-8-((S)-5-(fluoromethyl)-2-oxooxazolidin-3-yl)-2,4-dimethyl-2,4,4a,6-tetrahydro-1H,1′H-spiro[isoxazolo[4,5-g][1,4]oxazino[4,3-a]quinoline-5,5′-pyrimidine]-2′,4′,6′(3′H)-trione]	–	–	0.78 µM (≈ 0.407 µg/mL)	0.39 µM (≈ 0.204 µg/mL)	0.39 µM (≈ 0.204 µg/mL)	0.39 µM (≈ 0.204 µg/mL)	–	200 µM (≈ 104 µg/mL)	1.5 µM (≈ 0.783 µg/mL)	–	–	< 0.2 µM	< 0.2 µM	200 µM (≈ 104 µg/mL)	0.27 µM (≈ 0.141 µg/mL)	630 nM
C=CC[C@H]1COC(=O)N1c1noc2c(F)c3c(cc12)CC1(C(=O)NC(=O)NC1=O)[C@H]1[C@H](C)O[C@H](C)CN31 [Example 25, (2R,4S,4aS)-8-((S)-4-Allyl-2-oxooxazolidin-3-yl)-11-fluoro-2,4-dimethyl-2,4,4a,6-tetrahydro-1H,1′H-spiro[isoxazolo[4,5-g][1,4]oxazino[4,3-a]quinoline-5,5′-pyrimidine]-2′,4′,6′(3′H)-trione]	–	–	0.39 µM (≈ 0.2 µg/mL)	1.6 µM (≈ 0.822 µg/mL)	0.78 µM (≈ 0.401 µg/mL)	0.78 µM (≈ 0.401 µg/mL)	–	200 µM (≈ 103 µg/mL)	12 µM (≈ 6.16 µg/mL)	–	–	0.78 µM (≈ 0.401 µg/mL)	0.39 µM (≈ 0.2 µg/mL)	> 200 µM	0.78 µM (≈ 0.401 µg/mL)	260 nM
